Data published in the NIST ThermoML archive (doi:10.1016/j.jct.2016.04.020).

Assay: mn = molality of the nth substance listed, in mol/kg
Settings: 101.3 kPa, Liquid, Vibrating tube method

O=C([O-])CC(O)(CC(=O)[O-])C(=O)[O-].[NH4+].[NH4+].[NH4+] [ammonium 2-hydroxypropane-1,2,3-tricarboxylate] + O
mass density [kg/m3]
Settings	m1 = 0.0125	m1 = 0.025	m1 = 0.04999	m1 = 0.09998	m1 = 0.1499	m1 = 0.2
283.15 K	1001.9	1003.43	1006.27	1011.68	1017.03	1022.12
287.15 K	1001.25	1002.76	1005.56	1010.91	1016.2	1021.24
293.15 K	1000.32	1001.83	1004.59	1009.9	1015.14	1020.13
298.15 K	999.12	1000.6	1003.33	1008.6	1013.82	1018.77
303.15 K	997.71	999.18	1001.88	1007.13	1012.32	1017.26
308.15 K	996.07	997.53	1000.22	1005.44	1010.62	1015.55
313.15 K	994.23	995.69	998.32	1003.56	1008.75	1013.67
318.15 K	992.21	993.66	996.29	1001.54	1006.7	1011.63
323.15 K	990.03	991.47	994.08	999.34	1004.49	1009.46
328.15 K	987.68	989.12	991.7	996.99	1002.14	1007.11
333.15 K	985.17	986.62	989.15	994.46	999.65	1004.59

O=C([O-])CC(O)(CC(=O)[O-])C(=O)[O-].[Li+].[Li+].[Li+] [trilithium citrate] + O
Settings	mass density [kg/m3]
278.15 K, m1 = 0.0128	1002
278.15 K, m1 = 0.0256	1003.88
278.15 K, m1 = 0.06	1008.52
278.15 K, m1 = 0.1021	1013.86
278.15 K, m1 = 0.1956	1026.51
278.15 K, m1 = 0.293	1038.92
278.15 K, m1 = 0.3876	1050.53
278.15 K, m1 = 0.4799	1061.45
278.15 K, m1 = 0.6695	1083.25
278.15 K, m1 = 0.7552	1092.43
278.15 K, m1 = 0.8394	1101.64
278.15 K, m1 = 0.9407	1112.23
278.15 K, m1 = 1.33	1149.11
278.15 K, m1 = 1.74	1185.46
283.15 K, m1 = 0.0128	1001.66
283.15 K, m1 = 0.0256	1003.48
283.15 K, m1 = 0.06	1008.09
283.15 K, m1 = 0.1021	1013.43
283.15 K, m1 = 0.1956	1025.89
283.15 K, m1 = 0.293	1038.19
283.15 K, m1 = 0.3876	1049.67
283.15 K, m1 = 0.4799	1060.48
283.15 K, m1 = 0.6695	1082.11
283.15 K, m1 = 0.7552	1091.22
283.15 K, m1 = 0.8394	1100.37
283.15 K, m1 = 0.9407	1110.89
283.15 K, m1 = 1.33	1147.56
283.15 K, m1 = 1.74	1183.73
288.15 K, m1 = 0.0128	1001.03
288.15 K, m1 = 0.0256	1002.83
288.15 K, m1 = 0.06	1007.41
288.15 K, m1 = 0.1021	1012.68
288.15 K, m1 = 0.1956	1025.03
288.15 K, m1 = 0.293	1037.23
288.15 K, m1 = 0.3876	1048.63
288.15 K, m1 = 0.4799	1059.37
288.15 K, m1 = 0.6695	1080.85
288.15 K, m1 = 0.7552	1089.92
288.15 K, m1 = 0.8394	1099.01
288.15 K, m1 = 0.9407	1109.48
288.15 K, m1 = 1.33	1145.98
288.15 K, m1 = 1.74	1182.04
293.15 K, m1 = 0.0128	1000.13
293.15 K, m1 = 0.0256	1001.93
293.15 K, m1 = 0.06	1006.4
293.15 K, m1 = 0.1021	1011.71
293.15 K, m1 = 0.1956	1023.97
293.15 K, m1 = 0.293	1036.06
293.15 K, m1 = 0.3876	1047.42
293.15 K, m1 = 0.4799	1058.1
293.15 K, m1 = 0.6695	1079.46
293.15 K, m1 = 0.7552	1088.49
293.15 K, m1 = 0.8394	1097.55
293.15 K, m1 = 0.9407	1107.97
293.15 K, m1 = 1.33	1144.34
293.15 K, m1 = 1.74	1180.29
298.15 K, m1 = 0.0128	998.94
298.15 K, m1 = 0.0256	1000.72
298.15 K, m1 = 0.06	1005.21
298.15 K, m1 = 0.1021	1010.53
298.15 K, m1 = 0.1956	1022.63
298.15 K, m1 = 0.293	1034.68
298.15 K, m1 = 0.3876	1045.95
298.15 K, m1 = 0.4799	1056.57
298.15 K, m1 = 0.6695	1077.86
298.15 K, m1 = 0.7552	1086.85
298.15 K, m1 = 0.8394	1095.87
298.15 K, m1 = 0.9407	1106.24
298.15 K, m1 = 1.33	1142.51
298.15 K, m1 = 1.74	1178.37
303.15 K, m1 = 0.0128	997.54
303.15 K, m1 = 0.0256	999.32
303.15 K, m1 = 0.06	1003.8
303.15 K, m1 = 0.1021	1008.95
303.15 K, m1 = 0.1956	1021.12
303.15 K, m1 = 0.293	1033.1
303.15 K, m1 = 0.3876	1044.36
303.15 K, m1 = 0.4799	1054.93
303.15 K, m1 = 0.6695	1076.13
303.15 K, m1 = 0.7552	1085.11
303.15 K, m1 = 0.8394	1094.1
303.15 K, m1 = 0.9407	1104.46
303.15 K, m1 = 1.33	1140.64
303.15 K, m1 = 1.74	1176.43
308.15 K, m1 = 0.0128	995.93
308.15 K, m1 = 0.0256	997.69
308.15 K, m1 = 0.06	1002.15
308.15 K, m1 = 0.1021	1007.28
308.15 K, m1 = 0.1956	1019.42
308.15 K, m1 = 0.293	1031.35
308.15 K, m1 = 0.3876	1042.52
308.15 K, m1 = 0.4799	1053.1
308.15 K, m1 = 0.6695	1074.26
308.15 K, m1 = 0.7552	1083.2
308.15 K, m1 = 0.8394	1092.17
308.15 K, m1 = 0.9407	1102.51
308.15 K, m1 = 1.33	1138.61
308.15 K, m1 = 1.74	1174.35
313.15 K, m1 = 0.0128	994.08
313.15 K, m1 = 0.0256	995.83
313.15 K, m1 = 0.06	1000.28
313.15 K, m1 = 0.1021	1005.41
313.15 K, m1 = 0.1956	1017.49
313.15 K, m1 = 0.293	1029.43
313.15 K, m1 = 0.3876	1040.59
313.15 K, m1 = 0.4799	1051.12
313.15 K, m1 = 0.6695	1072.2
313.15 K, m1 = 0.7552	1081.14
313.15 K, m1 = 0.8394	1090.09
313.15 K, m1 = 0.9407	1100.41
313.15 K, m1 = 1.33	1136.47
313.15 K, m1 = 1.74	1172.18
318.15 K, m1 = 0.0128	992.05
318.15 K, m1 = 0.0256	993.81
318.15 K, m1 = 0.06	998.26
318.15 K, m1 = 0.1021	1003.38
318.15 K, m1 = 0.1956	1015.42
318.15 K, m1 = 0.293	1027.35
318.15 K, m1 = 0.3876	1038.47
318.15 K, m1 = 0.4799	1048.98
318.15 K, m1 = 0.6695	1070.04
318.15 K, m1 = 0.7552	1078.96
318.15 K, m1 = 0.8394	1087.9
318.15 K, m1 = 0.9407	1098.21
318.15 K, m1 = 1.33	1134.23
318.15 K, m1 = 1.74	1169.9
323.15 K, m1 = 0.0128	989.86
323.15 K, m1 = 0.0256	991.58
323.15 K, m1 = 0.06	996.08
323.15 K, m1 = 0.1021	1001.19
323.15 K, m1 = 0.1956	1013.22
323.15 K, m1 = 0.293	1025.12
323.15 K, m1 = 0.3876	1036.24
323.15 K, m1 = 0.4799	1046.74
323.15 K, m1 = 0.6695	1067.78
323.15 K, m1 = 0.7552	1076.68
323.15 K, m1 = 0.8394	1085.62
323.15 K, m1 = 0.9407	1095.92
323.15 K, m1 = 1.33	1131.93
323.15 K, m1 = 1.74	1167.57
328.15 K, m1 = 0.0128	987.52
328.15 K, m1 = 0.0256	989.24
328.15 K, m1 = 0.06	993.72
328.15 K, m1 = 0.1021	998.82
328.15 K, m1 = 0.1956	1010.84
328.15 K, m1 = 0.293	1022.76
328.15 K, m1 = 0.3876	1033.86
328.15 K, m1 = 0.4799	1044.36
328.15 K, m1 = 0.6695	1065.38
328.15 K, m1 = 0.7552	1074.27
328.15 K, m1 = 0.8394	1083.21
328.15 K, m1 = 0.9407	1093.5
328.15 K, m1 = 1.33	1129.51
328.15 K, m1 = 1.74	1165.14
333.15 K, m1 = 0.0128	985.04
333.15 K, m1 = 0.0256	986.7
333.15 K, m1 = 0.06	991.24
333.15 K, m1 = 0.1021	996.31
333.15 K, m1 = 0.1956	1008.42
333.15 K, m1 = 0.293	1020.27
333.15 K, m1 = 0.3876	1031.35
333.15 K, m1 = 0.4799	1041.87
333.15 K, m1 = 0.6695	1062.87
333.15 K, m1 = 0.7552	1071.77
333.15 K, m1 = 0.8394	1080.69
333.15 K, m1 = 0.9407	1090.99
333.15 K, m1 = 1.33	1127.01
333.15 K, m1 = 1.74	1162.66
338.15 K, m1 = 0.0128	982.43
338.15 K, m1 = 0.0256	984.02
338.15 K, m1 = 0.06	988.59
338.15 K, m1 = 0.1021	993.66
338.15 K, m1 = 0.1956	1005.8
338.15 K, m1 = 0.293	1017.67
338.15 K, m1 = 0.3876	1028.73
338.15 K, m1 = 0.4799	1039.22
338.15 K, m1 = 0.6695	1060.25
338.15 K, m1 = 0.7552	1069.15
338.15 K, m1 = 0.8394	1078.19
338.15 K, m1 = 0.9407	1088.43
338.15 K, m1 = 1.33	1124.43
338.15 K, m1 = 1.74	1160.09
343.15 K, m1 = 0.0128	979.51
343.15 K, m1 = 0.0256	981.2
343.15 K, m1 = 0.06	985.85
343.15 K, m1 = 0.1021	990.99
343.15 K, m1 = 0.1956	1002.94
343.15 K, m1 = 0.293	1014.95
343.15 K, m1 = 0.3876	1026.06
343.15 K, m1 = 0.4799	1036.55
343.15 K, m1 = 0.6695	1057.62
343.15 K, m1 = 0.7552	1066.41
343.15 K, m1 = 0.8394	1075.46
343.15 K, m1 = 0.9407	1085.78
343.15 K, m1 = 1.33	1121.83
343.15 K, m1 = 1.74	1157.54
